Reference: the NIST ThermoML archive (doi:10.1021/je9006713)
Several values for one entry are separate records, joined by “and”; a condition that tells them apart may be missing. Identical values can stand only once.

Test: mn = molality of the nth substance listed, in mol/kg
Settings: Liquid, glass piezometer

[I-].[NH4+] [ammonium iodide] + N
mass density
Settings	303.15 K	313.15 K	323.15 K	333.15 K	343.15 K	353.15 K	363.15 K	373.15 K
10000 kPa, m1 = 0.867	698.2 kg/m3	683.7 kg/m3	668.4 kg/m3	650.5 kg/m3	632.1 kg/m3	615.5 kg/m3	593.9 kg/m3	579.5 kg/m3
10000 kPa, m1 = 1.827	777.3 kg/m3	762.9 kg/m3	748.7 kg/m3	732.5 kg/m3	716.4 kg/m3	700.1 kg/m3	680.1 kg/m3	666.9 kg/m3
10000 kPa, m1 = 3.103	870.7 kg/m3	857.4 kg/m3	844.3 kg/m3	829.3 kg/m3	814.6 kg/m3	797.7 kg/m3	780.9 kg/m3	768.1 kg/m3
10000 kPa, m1 = 4.856	988.2 kg/m3	974.7 kg/m3	960.5 kg/m3	947.6 kg/m3	933.1 kg/m3	917.8 kg/m3	903.2 kg/m3	889.8 kg/m3
10000 kPa, m1 = 7.271	1109 kg/m3	1097.5 kg/m3	1085.9 kg/m3	1075.9 kg/m3	1062.2 kg/m3	1049.9 kg/m3	1037.1 kg/m3	1026.1 kg/m3
10000 kPa, m1 = 11.18	1234 kg/m3	1222.9 kg/m3	1212.3 kg/m3	1199.8 kg/m3	1188.9 kg/m3	1177.9 kg/m3	1166.7 kg/m3	1155.3 kg/m3
10000 kPa, m1 = 16.46	1329.5 kg/m3	1322 kg/m3	1312 kg/m3	1302.5 kg/m3	1293.1 kg/m3	1284.9 kg/m3	1274.7 kg/m3	1265.9 kg/m3
15000 kPa, m1 = 0.867	702.3 kg/m3	688 kg/m3	672.8 kg/m3	655.7 kg/m3	638 kg/m3	621.8 kg/m3	601.7 kg/m3	587.3 kg/m3
15000 kPa, m1 = 1.827	780.7 kg/m3	766.9 kg/m3	752.7 kg/m3	737 kg/m3	721.7 kg/m3	705.7 kg/m3	687.2 kg/m3	674 kg/m3
15000 kPa, m1 = 3.103	874.3 kg/m3	861.1 kg/m3	848.1 kg/m3	833.5 kg/m3	818.9 kg/m3	803 kg/m3	786.3 kg/m3	773.7 kg/m3
15000 kPa, m1 = 4.856	992.3 kg/m3	978.5 kg/m3	964.8 kg/m3	951.7 kg/m3	937.1 kg/m3	922.1 kg/m3	907.9 kg/m3	894.4 kg/m3
15000 kPa, m1 = 7.271	1112.4 kg/m3	1100.9 kg/m3	1089.2 kg/m3	1078.8 kg/m3	1065.7 kg/m3	1053.5 kg/m3	1040.7 kg/m3	1029.7 kg/m3
15000 kPa, m1 = 11.18	1236.7 kg/m3	1225.9 kg/m3	1214.9 kg/m3	1202.6 kg/m3	1192.1 kg/m3	1181 kg/m3	1169.8 kg/m3	1158.5 kg/m3
15000 kPa, m1 = 16.46	1332.2 kg/m3	1323.9 kg/m3	1314.6 kg/m3	1305 kg/m3	1296 kg/m3	1287.4 kg/m3	1277.2 kg/m3	1268.6 kg/m3
20000 kPa, m1 = 0.867	706.3 kg/m3	691.9 kg/m3	677 kg/m3	660.8 kg/m3	643.7 kg/m3	627.9 kg/m3	609.6 kg/m3	595.1 kg/m3
20000 kPa, m1 = 1.827	783.9 kg/m3	770.7 kg/m3	756.8 kg/m3	741.3 kg/m3	726.9 kg/m3	711.2 kg/m3	694.2 kg/m3	681 kg/m3
20000 kPa, m1 = 3.103	877.8 kg/m3	864.6 kg/m3	852 kg/m3	837.7 kg/m3	823.2 kg/m3	808.3 kg/m3	791.7 kg/m3	779.4 kg/m3
20000 kPa, m1 = 4.856	996.2 kg/m3	982.3 kg/m3	969 kg/m3	955.5 kg/m3	941.1 kg/m3	926.5 kg/m3	912.5 kg/m3	898.9 kg/m3
20000 kPa, m1 = 7.271	1115.2 kg/m3	1103.9 kg/m3	1092.5 kg/m3	1081.7 kg/m3	1069.2 kg/m3	1056.9 kg/m3	1044.1 kg/m3	1033.2 kg/m3
20000 kPa, m1 = 11.18	1238.9 kg/m3	1228.8 kg/m3	1217 kg/m3	1205.5 kg/m3	1194.9 kg/m3	1183.7 kg/m3	1172.8 kg/m3	1161.6 kg/m3
20000 kPa, m1 = 16.46	1334.5 kg/m3	1326.5 kg/m3	1316.8 kg/m3	1307.6 kg/m3	1298.5 kg/m3	1289.9 kg/m3	1279.6 kg/m3	1271 kg/m3
25000 kPa, m1 = 0.867	710.1 kg/m3	695.7 kg/m3	681.3 kg/m3	666 kg/m3	649.4 kg/m3	634.3 kg/m3	617.4 kg/m3	603.1 kg/m3
25000 kPa, m1 = 1.827	787.4 kg/m3	774.7 kg/m3	760.7 kg/m3	745.9 kg/m3	731.9 kg/m3	716.6 kg/m3	701.2 kg/m3	687.8 kg/m3
25000 kPa, m1 = 3.103	881.1 kg/m3	867.8 kg/m3	855.9 kg/m3	841.8 kg/m3	827.6 kg/m3	813.5 kg/m3	797.3 kg/m3	785.2 kg/m3
25000 kPa, m1 = 4.856	999.8 kg/m3	986.1 kg/m3	973.3 kg/m3	959.4 kg/m3	945.1 kg/m3	931 kg/m3	916.8 kg/m3	903.4 kg/m3
25000 kPa, m1 = 7.271	1118 kg/m3	1107.3 kg/m3	1095.5 kg/m3	1084.6 kg/m3	1072.4 kg/m3	1060.4 kg/m3	1047.4 kg/m3	1036.7 kg/m3
25000 kPa, m1 = 11.18	1241.2 kg/m3	1231.4 kg/m3	1219.2 kg/m3	1208 kg/m3	1197.3 kg/m3	1186.5 kg/m3	1175.5 kg/m3	1164.3 kg/m3
25000 kPa, m1 = 16.46	1336.8 kg/m3	1329.2 kg/m3	1319.4 kg/m3	1310.2 kg/m3	1301.4 kg/m3	1292.4 kg/m3	1281.7 kg/m3	1273.4 kg/m3
30000 kPa, m1 = 0.867	713.7 kg/m3	699.6 kg/m3	685.5 kg/m3	671.3 kg/m3	654.8 kg/m3	640.4 kg/m3	625.2 kg/m3	610.8 kg/m3
30000 kPa, m1 = 1.827	791 kg/m3	778.6 kg/m3	764.7 kg/m3	749.9 kg/m3	737 kg/m3	721.9 kg/m3	708.4 kg/m3	694.7 kg/m3
30000 kPa, m1 = 3.103	884.5 kg/m3	871.3 kg/m3	859.8 kg/m3	845.6 kg/m3	831.8 kg/m3	818.7 kg/m3	802.8 kg/m3	790.9 kg/m3
30000 kPa, m1 = 4.856	1003.5 kg/m3	989.9 kg/m3	977.3 kg/m3	963.1 kg/m3	949.2 kg/m3	935.2 kg/m3	921.1 kg/m3	907.8 kg/m3
30000 kPa, m1 = 7.271	1120.4 kg/m3	1110.4 kg/m3	1098.5 kg/m3	1087.3 kg/m3	1075.2 kg/m3	1063.5 kg/m3	1050.5 kg/m3	1039.9 kg/m3
30000 kPa, m1 = 11.18	1243.5 kg/m3	1233.7 kg/m3	1221.4 kg/m3	1210.2 kg/m3	1199.8 kg/m3	1188.9 kg/m3	1177.9 kg/m3	1166.8 kg/m3
30000 kPa, m1 = 16.46	–	1338.7 kg/m3 and 1331.4 kg/m3	1321.6 kg/m3	1312.4 kg/m3	1303.9 kg/m3	1294.5 kg/m3	1283.9 kg/m3	1275.8 kg/m3
